“And” between values parts separate entries of the source, which are not always exact repeats. Equal values may be shown once. Read-outs that look alike come from different tables or passages of the source. One block for each substance: values may come before it. Where no end group is shown, it is not given here.
Assays:
[1] = biological target: MDM2 SWIB domain, Channa argus; assay: Fluorescence polarization displacement assay; assay type: binding; conditions: for IC50 / Ki: C.arg MDM2 1500 nM
[2] = biological target: MDM2 SWIB domain, Lepisosteus oculatus; assay: Fluorescence polarization displacement assay; assay type: binding
D. rerio MDM2 = biological target: T1, D. rerio MDM2 (Danio rerio, UniProt O42354); assay: Isothermal titration calorimetry; assay type: binding; conditions: 25 °C; for Kd / TΔS / ΔH: ITC
T1 construct: NusA-TEV-His6-PreScission site (N, cleaved yes); made in house; host or cells: Escherichia coli BL21 (DE3)
T1 sequence (O42354 with tags, fused parts or gaps): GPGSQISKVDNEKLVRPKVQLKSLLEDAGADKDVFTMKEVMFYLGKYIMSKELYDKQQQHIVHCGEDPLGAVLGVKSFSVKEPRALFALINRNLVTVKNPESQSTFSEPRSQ
Procedure: For ITC experiments, a MicroCal iTC200 instrument (GE Healthcare) was used, and the experiments were performed at 25 °C. The MDM2 protein and p53TAD peptides were dialyzed against the experimental buffer prior to experiments to avoid buffer mismatch. The concentration of D. rerio MDM2 in the cell was 11 μM and the concentration of p53TADD.rerio^17–32 and p53TADD.rerio^10–75 in the syringe was 118 and 116 μM, respectively. Results were analyzed using the built-in software and a 2-state binding model was assumed.

MDM2D.rerio SWIB domain [3] = biological target: T2, MDM2D.rerio SWIB domain (Danio rerio, UniProt O42354); assay: Fluorescence polarization displacement assay; assay type: binding
T2 construct: NusA-TEV-His6-PreScission (N, cleaved yes); made in house; host or cells: Escherichia coli BL21 (DE3)
T2 sequence (O42354 with tags, fused parts or gaps): T1 sequence (O42354 with tags, fused parts or gaps)

[4] = biological target: MDM2 SWIB domain, Maylandia zebra; assay: Fluorescence polarization displacement assay; assay type: binding; conditions: for IC50 / Ki: M.zeb MDM2 2000 nM
[5] = biological target: T3, MDM2H.sapiens SWIB domain (Homo sapiens, UniProt Q00987); assay: Fluorescence polarization displacement assay; assay type: binding
T3 construct: NusA-TEV-His6-PreScission (N, cleaved yes); made in house; host or cells: Escherichia coli BL21 (DE3)

MDM2D.rerio SWIB domain [6] = biological target: T2, MDM2D.rerio SWIB domain; conditions: ref Mihalič et al. 2023; cited from earlier work
Text: Abstract The transcription factor and cell cycle regulator p53 is marked for degradation by the ubiquitin ligase MDM2. The interaction between these 2 proteins is mediated by a conserved binding motif in the disordered p53 transactivation domain (p53TAD) and the folded SWIB domain in MDM2. […] The interaction between the proteins is mediated by a conserved binding motif in the intrinsically disordered N-terminal transactivation domain (TAD) of p53 and a SWIB domain in MDM2 (Fig. 1). The interaction leads to MDM2-catalyzed ubiquitination and proteasomal degradation of p53. Phosphorylation of p53TAD increases affinity for the general transcriptional coactivators CBP/p300 a ...

human MDM2 = conditions: ref Åberg et al. (2018); read-out: KD (μM) p53TAD^full-length native (converted); cited from earlier work
Text: Therefore, we expressed, purified, and subjected a longer p53TAD construct from D. rerio to binding experiments (Fig. 4a).

[7] = labeled probe 15 nM, replicate 1, read-out: IC50 [M] (IT)
[8] = labeled probe 15 nM, replicate 3, read-out: IC50 [M] (IT)
[9] = average of the replicates, probe 15 nM, Kd for probe […], read-out: Ki [nM] Average
[10] = average of the replicates, probe 15 nM, Kd for probe […], read-out: Ki [µM] Average
[11] = calculated from IC50, Kd for probe […], probe 15 nM, replicate 1, read-out: Ki
[12] = calculated from IC50, Kd for probe […], probe 15 nM, replicate 2, read-out: Ki
[13] = calculated from IC50, Kd for probe […], probe 15 nM, replicate 3, read-out: Ki
[14] = mean of the replicates, probe 15 nM, read-out: IC50 [nM], mean of the replicates

MDM2 SWIB domain, Channa argus, sequence (as listed by the source): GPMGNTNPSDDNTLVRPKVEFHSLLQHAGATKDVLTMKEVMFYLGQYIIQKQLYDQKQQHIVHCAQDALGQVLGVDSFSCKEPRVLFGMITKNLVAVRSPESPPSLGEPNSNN
MDM2 SWIB domain, Lepisosteus oculatus, sequence (as listed by the source): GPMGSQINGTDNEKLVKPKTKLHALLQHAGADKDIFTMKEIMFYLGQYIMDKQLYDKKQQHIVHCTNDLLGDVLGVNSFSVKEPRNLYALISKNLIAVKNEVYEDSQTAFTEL
MDM2 SWIB domain, Maylandia zebra, sequence (as listed by the source): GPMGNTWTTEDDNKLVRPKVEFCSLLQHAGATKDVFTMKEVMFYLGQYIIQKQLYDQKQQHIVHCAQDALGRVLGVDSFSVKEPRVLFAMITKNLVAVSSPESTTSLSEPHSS
T3 sequence (Q00987 with tags, fused parts or gaps): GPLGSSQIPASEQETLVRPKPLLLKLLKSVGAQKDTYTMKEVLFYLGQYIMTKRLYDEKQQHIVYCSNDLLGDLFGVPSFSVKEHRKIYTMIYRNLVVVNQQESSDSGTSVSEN

Substance: GPMGMMEEQGFESLPLSQDSFRELWESVVTPSISTIPPAPEVPQDTMYMMLMNDQVLADGFDEKLFELPPESSTKDGVVPPSST [C.arg p53 P1 full, expressed full-length northern snakehead p53TAD paralog 1]
IC50 [1, 7]: 1.82e-06 M
IC50 ([1]; labeled probe 15 nM, replicate 2, read-out: IC50): 1.47e-06 M
IC50 [1, 8]: 1.52e-06 M
Kd ([1]; FP displacement of FITC-p53TADhuman^15–26 (15 nM) from MDM2 (1.5 μM), KD from IC50, 20 mM sodium phosphate pH 7.4, 150 mM NaCl, 1 mM TCEP): 100 ± 30 nM
Ki [1, 9]: 98.6 nM
Ki [1, 10]: 98.6 nM
Ki [1, 11]: 153 nM
Ki [1, 12]: 65.5 nM
Ki [1, 13]: 77.8 nM
IC50 [1, 14]: 1.6e-06 M

Kd ([2]; FP displacement of FITC-p53TADhuman^15–26 (15 nM) from MDM2 (1 μM), KD from IC50, 20 mM sodium phosphate pH 7.4, 150 mM NaCl, 1 mM TCEP): 85 ± 5 nM
IC50 ([2]; equals the mean of the replicates, read-out: IC50 [nM], mean): 2090 nM
Ki ([2]; mean of the replicates (n = 3 or 6), read-out: Ki [nM] Average): 84.7 nM
Ki ([2]; mean of the replicates (n = 3 or 6), read-out: Ki [µM] Average): 84.7 nM
IC50 ([2]; replicate 1, MDM2 1000 nM, labeled probe 15 nM, read-out: IC50 [M] (IT)): 2170 nM
Ki ([2]; replicate 1, calculated from IC50 with Kd for probe 78 nM, read-out: Ki): 90.7 nM
IC50 ([2]; replicate 2, MDM2 1000 nM, labeled probe 15 nM, read-out: IC50 [M] (IT)): 2140 nM
Ki ([2]; replicate 2, calculated from IC50 with Kd for probe 78 nM, read-out: Ki): 88.6 nM
IC50 ([2]; replicate 3, MDM2 1000 nM, labeled probe 15 nM, read-out: IC50 [M] (IT)): 1960 nM
Ki ([2]; replicate 3, calculated from IC50 with Kd for probe 78 nM, read-out: Ki): 74.9 nM
Substance: GPMGMADPEPEGLPLSQESFQELWNMVIVLHRAVPPENAQWPDLQSMLYTNELVPNAIDSLYEELEPHVSMPPQPMVSNPDGLAPSSST [L.ocu p53 full, expressed full-length spotted gar p53TAD]

Substance: GPMGMAQNDSQEFAELWEKNLISIQPPGGGSCWDIINDEEYLPGSFDPNFFGNVLEEQPQPSTLPPTST* [D.rer p53 P2 full, expressed whole TAD region of D. rerio p53]
N (ITC stoichiometry) (D. rerio MDM2; first replicate): 0.79±0.01
N (ITC stoichiometry) (D. rerio MDM2; second replicate): 0.74±0.01
Kd (D. rerio MDM2; MDM2 11 μM in the cell, approximate value): ~100 nM
TΔS (D. rerio MDM2; first replicate): 1.7 kcal/mol
ΔH (D. rerio MDM2; first replicate): -7.8 ± 0.1 kcal/mol
Kd (D. rerio MDM2; one of two replicates, the first printed for this construct in Fig. S5 (replicate number not assignable)): 100 ± 20 nM
Kd (D. rerio MDM2; one of two replicates, the second printed for this construct in Fig. S5 (replicate number not assignable)): 100 ± 10 nM
TΔS (D. rerio MDM2; second replicate): 2.0 kcal/mol
ΔH (D. rerio MDM2; second replicate): -7.6 ± 0.1 kcal/mol
Kd (MDM2D.rerio SWIB domain [3]; FP displacement of FITC-p53TADhuman^15–26 (15 nM) from MDM2 (1 μM or 1.5 μM, both printed), KD from IC50, 20 mM sodium phosphate pH 7.4, 150 mM NaCl, 1 mM TCEP, read-out: KD): 49 ± 8 nM
Kd (MDM2D.rerio SWIB domain [3]; FP displacement, printed in nM (text, Fig. S4A), read-out: KD): 49 nM
fold higher affinity than p53TAD^15–27D.rerio (MDM2D.rerio SWIB domain [3]; ratio of KD values, FP displacement): more than 70 fold
IC50 (MDM2D.rerio SWIB domain [3]; read-out: IC50 [M] (IT)): 1.73e-06 M and 1.93e-06 M and 1.69e-06 M
IC50 (MDM2D.rerio SWIB domain [3]; read-out: IC50 [nM], mean of the replicates (cell without heading below the column)): 1.78e-06 M
Ki (MDM2D.rerio SWIB domain [3]; read-out: Ki): 42.6 nM and 65.1 nM and 39.2 nM
Ki (MDM2D.rerio SWIB domain [3]; read-out: Ki [nM] Average): 49 nM
Ki (MDM2D.rerio SWIB domain [3]; read-out: Ki [µM] Average): 49 nM

Substance: Ac-EFAELWEKNLISIQP (N-terminus assumed) [D.rer p53 17-32 (G1K]
N (ITC stoichiometry) (D. rerio MDM2; first replicate): 0.74±0.01
N (ITC stoichiometry) (D. rerio MDM2; second replicate): 0.76±0.01
TΔS (D. rerio MDM2; first replicate): 1.7 kcal/mol
ΔH (D. rerio MDM2; first replicate): -7.2 ± 0.1 kcal/mol
TΔS (D. rerio MDM2; second replicate): 1.2 kcal/mol
ΔH (D. rerio MDM2; second replicate): -7.6 ± 0.1 kcal/mol

Kd ([4]; FP displacement of FITC-p53TADhuman^15–26 (15 nM) from MDM2 (2 μM), KD from IC50, 20 mM sodium phosphate pH 7.4, 150 mM NaCl, 1 mM TCEP): 190 ± 20 nM
IC50 [4, 7]: 3.27e-06 M
IC50 ([4]; labeled probe 15 nM, replicate 2, read-out: IC50 [M] (IT)): 3.18e-06 M
IC50 [4, 8]: 2.72e-06 M
Ki [4, 9]: 188 nM
Ki [4, 10]: 190 nM
Ki [4, 11]: 218 nM
Ki [4, 12]: 206 nM
Ki [4, 13]: 140 nM
IC50 [4, 14]: 3.06e-06 M
Substance: GPMGMAEQGFEDLQLSQNLPFSQDSFKELWDQLPVAESLSVSLDTISAVNSSTTGHDETWRPDGTMDMFQLINDQQLAEHFDEKLFELPNDALPKDGVTPPAST [M.zeb p53 P1 full, expressed full-length zebra mbuna p53TAD paralog 1]

Substance: Ac-SQEFAELWEKNL [D.rer p53 P2 short]
IC50 [5]: 31800 nM
Ki [5]: 4330 nM
IC50 (MDM2D.rerio SWIB domain [3]): 3.39e-05 M
Kd (MDM2D.rerio SWIB domain [3]): 3600 ± 300 nM

Substance: GSQNDSQEFAELWEKNLISIQPPGGGSCWDIINDEEYLPGSFDPN [D.rer p53 P2 longer]
IC50 (MDM2D.rerio SWIB domain [3]): 1.64e-06 M

Substance: p53TADD.rerio (residues 15 to 26): peptide corresponding to the conserved binding motif in p53TADD.rerio, earlier study (KNLIIQPPGGGS; UniProt P79734 15-26, looked up, fragment)
affinity in binding assay (MDM2D.rerio SWIB domain [6]): no affinity

Substance: H.sap p53 full: expressed full-length human p53 transactivation domain
Kd (human MDM2): 0.1 µM

Reference: publication PMC10901556, “Conservation of Affinity Rather Than Sequence Underlies a Dynamic Evolution of the Motif-Mediated p53/MDM2 Interaction in Ray-Finned Fishes” (Molecular Biology and Evolution, 2024)
